Source: the supplement of paper PMC10307832

Key:
Experiment in all cases: relative viability (nuclei count vs DMSO), 5 days (fraction); higher = more cells survive
[1] = compound: CCN1C(=O)C2=CC(=C(N=C2N(C1=O)C3CC3)N)C(=O)N + Nc1ncn([C@H]2C[C@H](O)[C@@H](CO)O2)c(=O)n1 [Decitabine] (partner 2 µM)
How it was run: (§1)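 Lung cancer cell lines in 1536-well plates were dosed by pin tool the day after seeding, either with one drug alone or with a fixed anchor-drug dose plus five library-drug doses (not always all listed) in √10 steps. After 5 days, cells were fixed and their nuclei stained in one step (final 0.05% Triton X-100, 1% formaldehyde, 1 ug/ml Hoechst), then counted on 4× images. Relative viability is the nuclei count in treated wells divided by that in vehicle wells. Values are medians of duplicate plates.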

[2] = compound: CCN1C(=O)C2=CC(=C(N=C2N(C1=O)C3CC3)N)C(=O)N + CCNC(=O)c1noc(-c2cc(C(C)C)c(O)cc2O)c1-c1ccc(CN2CCOCC2)cc1 [Luminespib] (partner 0.01 µM)
How it was run: as §1

[3] = compound: CCN1C(=O)C2=CC(=C(N=C2N(C1=O)C3CC3)N)C(=O)N + CC(=O)Nc1cccc(-n2c(=O)n(C3CC3)c(=O)c3c(Nc4ccc(I)cc4F)n(C)c(=O)c(C)c32)c1 [Trametinib] (partner 0.02 µM)
How it was run: as §1

[4] = compound: CCN1C(=O)C2=CC(=C(N=C2N(C1=O)C3CC3)N)C(=O)N + CC1(C)CCC(c2ccc(Cl)cc2)=C(CN2CCN(c3ccc(C(=O)NS(=O)(=O)c4ccc(N[C@H](CCN5CCOCC5)CSc5ccccc5)c(S(=O)(=O)C(F)(F)F)c4)cc3)CC2)C1 [Navitoclax] (partner 0.5 µM)
How it was run: as §1

[5] = compound: CCN1C(=O)C2=CC(=C(N=C2N(C1=O)C3CC3)N)C(=O)N + NC(=O)Nc1cc(-c2cccc(F)c2)sc1C(=O)N[C@H]1CCCNC1 [AZD7762] (partner 0.2 µM)
How it was run: as §1

NCI-H460
relative viability ([1]; first compound 0.253 µM): 0.454 | relative viability ([1]; first compound 0.8 µM): 0.462 | relative viability ([1]; first compound 2.53 µM): 0.524 | relative viability ([1]; first compound 8 µM): 0.301 | relative viability ([2]; first compound 0.253 µM): 0.0334 | relative viability ([2]; first compound 0.8 µM): 0.0279 | relative viability ([2]; first compound 2.53 µM): 0.0363 | relative viability ([2]; first compound 8 µM): 0.037 | relative viability ([3]; first compound 0.253 µM): 0.226 | relative viability ([3]; first compound 0.8 µM): 0.13 | relative viability ([3]; first compound 2.53 µM): 0.13 | relative viability ([3]; first compound 8 µM): 0.13 | relative viability ([4]; first compound 0.253 µM): 1.17 | relative viability ([4]; first compound 0.8 µM): 1.08 | relative viability ([4]; first compound 2.53 µM): 1.07 | relative viability ([4]; first compound 8 µM): 1.14 | relative viability ([5]; first compound 0.253 µM): 0.609 | relative viability ([5]; first compound 0.8 µM): 0.572 | relative viability ([5]; first compound 2.53 µM): 0.57 | relative viability ([5]; first compound 8 µM): 0.586

NCI-H596
relative viability ([1]; first compound 0.8 µM): 0.925 | relative viability ([1]; first compound 2.53 µM): 0.955 | relative viability ([1]; first compound 8 µM): 0.951 | relative viability ([2]; first compound 0.253 µM): 1.01 | relative viability ([2]; first compound 0.8 µM): 0.884 | relative viability ([2]; first compound 2.53 µM): 0.941 | relative viability ([2]; first compound 8 µM): 1.14 | relative viability ([3]; first compound 0.253 µM): 0.673 | relative viability ([3]; first compound 0.8 µM): 0.742 | relative viability ([3]; first compound 2.53 µM): 0.787 | relative viability ([3]; first compound 8 µM): 0.907 | relative viability ([4]; first compound 0.253 µM): 1.07 | relative viability ([4]; first compound 0.8 µM): 0.904 | relative viability ([4]; first compound 2.53 µM): 0.999 | relative viability ([4]; first compound 8 µM): 1.17 | relative viability ([5]; first compound 0.253 µM): 1.12 | relative viability ([5]; first compound 0.8 µM): 0.998 | relative viability ([5]; first compound 2.53 µM): 1.26 | relative viability ([5]; first compound 8 µM): 1.24

NCI-H647
relative viability ([1]; first compound 0.253 µM): 0.444 | relative viability ([1]; first compound 0.8 µM): 0.411 | relative viability ([1]; first compound 2.53 µM): 0.458 | relative viability ([1]; first compound 8 µM): 0.433 | relative viability ([2]; first compound 0.253 µM): 0.16 | relative viability ([2]; first compound 0.8 µM): 0.129 | relative viability ([2]; first compound 2.53 µM): 0.18 | relative viability ([2]; first compound 8 µM): 0.14 | relative viability ([3]; first compound 0.253 µM): 0.521 | relative viability ([3]; first compound 0.8 µM): 0.442 | relative viability ([3]; first compound 2.53 µM): 0.418 | relative viability ([3]; first compound 8 µM): 0.389 | relative viability ([4]; first compound 0.253 µM): 1.18 | relative viability ([4]; first compound 0.8 µM): 1.25 | relative viability ([4]; first compound 2.53 µM): 1.14 | relative viability ([4]; first compound 8 µM): 1.08 | relative viability ([5]; first compound 0.253 µM): 0.537 | relative viability ([5]; first compound 2.53 µM): 0.547 | relative viability ([5]; first compound 8 µM): 0.581

NCI-H727
relative viability ([1]; first compound 0.253 µM): 0.882 | relative viability ([1]; first compound 0.8 µM): 0.842 | relative viability ([1]; first compound 2.53 µM): 0.802 | relative viability ([1]; first compound 8 µM): 0.676 | relative viability ([2]; first compound 0.253 µM): 0.238 | relative viability ([2]; first compound 0.8 µM): 0.309 | relative viability ([2]; first compound 2.53 µM): 0.394 | relative viability ([2]; first compound 8 µM): 0.321 | relative viability ([3]; first compound 0.253 µM): 0.39 | relative viability ([3]; first compound 0.8 µM): 0.436 | relative viability ([3]; first compound 2.53 µM): 0.422 | relative viability ([3]; first compound 8 µM): 0.386 | relative viability ([4]; first compound 0.253 µM): 0.463 | relative viability ([4]; first compound 0.8 µM): 0.51 | relative viability ([4]; first compound 2.53 µM): 0.484 | relative viability ([4]; first compound 8 µM): 0.596 | relative viability ([5]; first compound 0.253 µM): 0.61 | relative viability ([5]; first compound 0.8 µM): 0.534 | relative viability ([5]; first compound 2.53 µM): 0.726 | relative viability ([5]; first compound 8 µM): 0.577

NCI-H838
relative viability ([1]; first compound 0.253 µM): 0.469 | relative viability ([1]; first compound 0.8 µM): 0.426 | relative viability ([1]; first compound 2.53 µM): 0.411 | relative viability ([1]; first compound 8 µM): 0.451 | relative viability ([2]; first compound 0.253 µM): 0.262 | relative viability ([2]; first compound 0.8 µM): 0.334 | relative viability ([2]; first compound 2.53 µM): 0.214 | relative viability ([2]; first compound 8 µM): 0.336 | relative viability ([3]; first compound 0.253 µM): 0.55 | relative viability ([3]; first compound 0.8 µM): 0.573 | relative viability ([3]; first compound 2.53 µM): 0.511 | relative viability ([3]; first compound 8 µM): 0.474 | relative viability ([4]; first compound 0.253 µM): 1.21 | relative viability ([4]; first compound 0.8 µM): 1.19 | relative viability ([4]; first compound 2.53 µM): 1.13 | relative viability ([4]; first compound 8 µM): 1.09 | relative viability ([5]; first compound 0.253 µM): 0.908 | relative viability ([5]; first compound 0.8 µM): 0.951 | relative viability ([5]; first compound 2.53 µM): 0.961 | relative viability ([5]; first compound 8 µM): 0.908

NCI-H1355
relative viability ([1]; first compound 0.253 µM): 0.325 | relative viability ([1]; first compound 0.8 µM): 0.331 | relative viability ([1]; first compound 2.53 µM): 0.382 | relative viability ([1]; first compound 8 µM): 0.339 | relative viability ([2]; first compound 0.253 µM): 0.652 | relative viability ([2]; first compound 0.8 µM): 0.887 | relative viability ([2]; first compound 2.53 µM): 0.761 | relative viability ([2]; first compound 8 µM): 0.753 | relative viability ([3]; first compound 0.253 µM): 0.429 | relative viability ([3]; first compound 0.8 µM): 0.387 | relative viability ([3]; first compound 2.53 µM): 0.383 | relative viability ([3]; first compound 8 µM): 0.438 | relative viability ([4]; first compound 0.253 µM): 0.969 | relative viability ([4]; first compound 0.8 µM): 0.987 | relative viability ([4]; first compound 2.53 µM): 0.861 | relative viability ([4]; first compound 8 µM): 0.921 | relative viability ([5]; first compound 0.253 µM): 0.798 | relative viability ([5]; first compound 0.8 µM): 0.821 | relative viability ([5]; first compound 2.53 µM): 0.756 | relative viability ([5]; first compound 8 µM): 0.691

NCI-H1395
relative viability ([1]; first compound 0.253 µM): 0.698 | relative viability ([1]; first compound 0.8 µM): 0.75 | relative viability ([1]; first compound 2.53 µM): 0.707 | relative viability ([1]; first compound 8 µM): 0.609 | relative viability ([2]; first compound 0.253 µM): 0.711 | relative viability ([2]; first compound 0.8 µM): 0.599 | relative viability ([2]; first compound 2.53 µM): 0.747 | relative viability ([2]; first compound 8 µM): 0.619 | relative viability ([3]; first compound 0.253 µM): 1.13 | relative viability ([3]; first compound 0.8 µM): 0.94 | relative viability ([3]; first compound 2.53 µM): 1.04 | relative viability ([3]; first compound 8 µM): 1.07 | relative viability ([4]; first compound 0.253 µM): 1.1 | relative viability ([4]; first compound 0.8 µM): 1.34 | relative viability ([4]; first compound 2.53 µM): 1.13 | relative viability ([4]; first compound 8 µM): 1.73 | relative viability ([5]; first compound 0.253 µM): 0.42 | relative viability ([5]; first compound 0.8 µM): 0.388 | relative viability ([5]; first compound 2.53 µM): 0.428 | relative viability ([5]; first compound 8 µM): 0.397

NCI-H1437
relative viability ([1]; first compound 0.253 µM): 0.654 | relative viability ([1]; first compound 0.8 µM): 0.578 | relative viability ([1]; first compound 2.53 µM): 0.591 | relative viability ([1]; first compound 8 µM): 0.509 | relative viability ([2]; first compound 0.253 µM): 1.1 | relative viability ([2]; first compound 0.8 µM): 1.06 | relative viability ([2]; first compound 2.53 µM): 1.1 | relative viability ([2]; first compound 8 µM): 1.16 | relative viability ([3]; first compound 0.253 µM): 0.609 | relative viability ([3]; first compound 0.8 µM): 0.468 | relative viability ([3]; first compound 2.53 µM): 0.527 | relative viability ([3]; first compound 8 µM): 0.406 | relative viability ([4]; first compound 0.253 µM): 1.12 | relative viability ([4]; first compound 0.8 µM): 1.09 | relative viability ([4]; first compound 2.53 µM): 1.07 | relative viability ([4]; first compound 8 µM): 1.12 | relative viability ([5]; first compound 0.253 µM): 1.03 | relative viability ([5]; first compound 0.8 µM): 1.09 | relative viability ([5]; first compound 2.53 µM): 1.17 | relative viability ([5]; first compound 8 µM): 1.14
